Several values for one entry are separate records, joined by “and”; a condition that tells them apart may be missing. Identical values can stand only once.
How the values were obtained:
[1] = test system: soybean explants; assay: BAP or TDZ for 4 days after co-cultivation: GFP-positive bud development, dicamba selection; type: cell-based, soybean (Glycine max); conditions: for # Explants w/ GFP+ buds / % Explants w/ GFP+ buds: 0.01 mg/L dicamba selection, 24 DAI; for effect on final transformation frequencies (TFs): addition of cytokinin with dicamba selection
[2] = test system: soybean explants; assay: BAP during co-culture and post co-culture delay: rooted plants and TF, spectinomycin selection; type: cell-based, soybean (Glycine max); conditions: 150 mg/L spectinomycin selection
Method: Soybean explants were inoculated and co-cultured with Agrobacterium harboring pMON96999 (FIG. 2). The inoculation and co-culture medium were supplemented with 0, 1, 2, 3, 4 or 5 mg/L BAP. […] The explants were then transferred onto selection medium (the same as the delay medium but containing 150 mg/L spectinomycin) for shoot induction and selection. […] To determine how many explants could develop transformed shoots without BAP treatment, explant tissues were assayed for GUS activity at 42 days after inoculation. […] Most of them were axillary, and some of them were apparently chimeric. The explants treated with BAP had much less or non-elongated primary shoots, and more de novo shoots. Many of the shoots elongated on the selection medium and were harvested to induce roots on the root induction medium also containing 150 mg/L spectinomycin as in protocol “A”.

[3] = test system: soybean explants; assay: TDZ in inoculation/co-culture medium: shoots harvested and transformed rooted shoots, glyphosate selection; type: cell-based, soybean (Glycine max)
[4] = test system: dry soybean explants; assay: Transformation frequency of dry soybean explants using glyphosate or spectinomycin as selective agent; type: cell-based; conditions: Glyphosate 50 uM in regeneration medium; dry soybean explants
[5] = test system: soybean explants; assay: TDZ during inoculation and co-culture: development of GUS-positive buds; type: cell-based, soybean (Glycine max); conditions: for # Explants w/ GUS+ buds (13 DAI): 96 explants assayed
[6] = test system: soybean explants; assay: TDZ during inoculation/co-cultivation: GFP-positive bud/shoot development, glyphosate selection; type: cell-based, soybean (Glycine max); conditions: for # Explants with GFP+ buds/shoots: 200 explants examined
[7] = test system: 3 months stored dry soybean explants; assay: Stored dry soybean explants, spectinomycin, pre-culture: TF; type: cell-based; conditions: nystatin 50 ppm and thiabendazole 10 ppm dissolved in DMSO added together to INO co-culture media
[8] = 1 mg/L for 4 days after co-cultivation
[9] = 2 mg/L for 4 days after co-cultivation
[10] = BAP 1 mg/L in co-culture & 4-d post co-culture delay medium
[11] = BAP 2 mg/L in co-culture & 4-d post co-culture delay medium
[12] = BAP 3 mg/L in co-culture & 4-d post co-culture delay medium
[13] = BAP 4 mg/L in co-culture & 4-d post co-culture delay medium
[14] = BAP 5 mg/L in co-culture & 4-d post co-culture delay medium
[15] = TDZ 0.5 mg/L for inoculation & co-culture
[16] = TDZ 1.0 mg/L for inoculation & co-culture
[17] = TDZ 2.0 mg/L for inoculation & co-culture
[18] = TDZ 0.5 mg/L in inoculation and co-cultivation medium
[19] = TDZ 1.0 mg/L in inoculation and co-cultivation medium
[20] = TDZ 1.5 mg/L in inoculation and co-cultivation medium
[21] = TDZ 2.0 mg/L in inoculation and co-cultivation medium
[22] = TDZ 3.0 mg/L in inoculation and co-cultivation medium
[23] = TDZ 1 mg/L for inoculation/co-culture, glyphosate selection
[24] = TDZ 2 mg/L for inoculation/co-culture, glyphosate selection
[25] = TDZ 3 mg/L for inoculation/co-culture, glyphosate selection

For c1ccc(CNc2ncnc3nc[nH]c23)cc1 [BAP, 6-Benzylaminopurine], the “# Explants w/ GFP+ buds” value [1, 8] was 12, the “% Explants w/ GFP+ buds” value [1, 8] was 3.7% and the “# Explants w/ GFP+ buds” value [1, 9] was 11. For the same compound, the “% Explants w/ GFP+ buds” value [1, 9] was 3.3%, the “effect on final transformation frequencies (TFs)” value [1] was “no visible effect” and the “# Rooted plants” value [2, 10] was 103. For the same compound, the “% TF” value [2, 10] was 26.1%, the “# Rooted plants” value [2, 11] was 94 and the “% TF” value [2, 11] was 27.1%. The “# Rooted plants” value [2, 12] was 87, the “% TF” value [2, 12] was 24.9% and the “# Rooted plants” value [2, 13] was 132. For the same compound, the “% TF” value [2, 13] was 30.3%, the “# Rooted plants” value [2, 14] was 116 and the “% TF” value [2, 14] was 26.6%.
For O=C(O)CNCP(=O)(O)O [Glyphosate, glyphosate], the transformation frequency ([3]; comparable experiments utilizing glyphosate as selective agent) was roughly 2% and the “% TF” value [4] was 2.00%.
For O=C(Nc1ccccc1)Nc1cnns1 [TDZ, thidiazuron], the “% Explants with GUS+ buds (13 DAI)” value [5, 15] was 18.8%, the “# Explants w/ GUS+ buds (13 DAI)” value [5, 15] was 18 and the “% Explants with GUS+ buds (13 DAI)” value [5, 16] was 35.4%. For the same compound, the “# Explants w/ GUS+ buds (13 DAI)” value [5, 16] was 34, the “% Explants with GUS+ buds (13 DAI)” value [5, 17] was 50.0% and the “# Explants w/ GUS+ buds (13 DAI)” value [5, 17] was 48. For the same compound, the “# Explants w/ GFP+ buds” value [1, 8] was 71, the “% Explants w/ GFP+ buds” value [1, 8] was 18.3% and the “# Explants w/ GFP+ buds” value [1, 9] was 53. For the same compound, the “% Explants w/ GFP+ buds” value [1, 9] was 13.8%, the “effect on final transformation frequencies (TFs)” value [1] was “no visible effect” and the “Frequency of explants with GFP+ buds/shoots” value [6, 18] was 18%. The “# Explants with GFP+ buds/shoots” value [6, 18] was 36, the “Frequency of explants with GFP+ buds/shoots” value [6, 19] was 24% and the “# Explants with GFP+ buds/shoots” value [6, 19] was 48. The “Frequency of explants with GFP+ buds/shoots” value [6, 20] was 25%, the “# Explants with GFP+ buds/shoots” value [6, 20] was 50 and the “Frequency of explants with GFP+ buds/shoots” value [6, 21] was 30%. The “# Explants with GFP+ buds/shoots” value [6, 21] was 60, the “Frequency of explants with GFP+ buds/shoots” value [6, 22] was 32% and the “# Explants with GFP+ buds/shoots” value [6, 22] was 64. The “% Transformed rooted shoots” value ([3]; TDZ 0.5 mg/L for inoculation/co-culture, glyphosate selection) was 1.1% and 1.4% and 4.3%, the “% Transformed rooted shoots” value [3, 23] was 1.3% and 1.6% and 0.5% and 3.2% and 1% and the “Shoots harvested, % Shooting Frequency” value [3, 23] was 4.9% and 7% and 3.5% and 13% and 6.8%. The “% Transformed rooted shoots” value [3, 24] was 0.1% and 1.3% and 0.9% and 0.5%, the “Shoots harvested, % Shooting Frequency” value [3, 24] was 1.4% and 4.9% and 5.1% and 6.7% and 1.9% and the “% Transformed rooted shoots” value [3, 25] was 0.6% and 0.7%. For the same compound, the “Rooted shoots, Total #” value [3, 25] was 5 and 8, the “Shoots harvested, % Shooting Frequency” value [3, 25] was 4.7% and 1.9% and the “Shoots harvested, Total #” value [3, 25] was 40 and 20.
For C[C@@H]1[C@H](O)[C@@H](C)/C=C/C=C/CC/C=C/C=C/C=C/C=C/C(O[C@H]2O[C@H](C)[C@@H](O)[C@H](N)[C@@H]2O)CC2O[C@](O)(CC(O)C(O)CCC(O)CC(O)CC(O)CC(=O)O[C@H]1C)CC(O)C2C(=O)O (stereo partly shown) [nystatin], the health of explants [7] was “improved the health of explants”.
With c1ccc2[nH]c(-c3cscn3)nc2c1 [thiabendazole] the health of explants [7] was “improved the health of explants”.
